Key:
[1] = molecular target: T1, human recombinant prolyl endopeptidase (PREP) (Homo sapiens, UniProt P48147); test: PREP enzymatic activity assay (Z-Gly-Pro-pNA, photometric); format: biochemical; details: for Ki: recombinant PREP, Z-Gly-Pro-pNA 62.5/125/250 μM, pH 7.6, 30°C, competitive fit
T1 construct: made in house
T1 sequence (P48147 1-710): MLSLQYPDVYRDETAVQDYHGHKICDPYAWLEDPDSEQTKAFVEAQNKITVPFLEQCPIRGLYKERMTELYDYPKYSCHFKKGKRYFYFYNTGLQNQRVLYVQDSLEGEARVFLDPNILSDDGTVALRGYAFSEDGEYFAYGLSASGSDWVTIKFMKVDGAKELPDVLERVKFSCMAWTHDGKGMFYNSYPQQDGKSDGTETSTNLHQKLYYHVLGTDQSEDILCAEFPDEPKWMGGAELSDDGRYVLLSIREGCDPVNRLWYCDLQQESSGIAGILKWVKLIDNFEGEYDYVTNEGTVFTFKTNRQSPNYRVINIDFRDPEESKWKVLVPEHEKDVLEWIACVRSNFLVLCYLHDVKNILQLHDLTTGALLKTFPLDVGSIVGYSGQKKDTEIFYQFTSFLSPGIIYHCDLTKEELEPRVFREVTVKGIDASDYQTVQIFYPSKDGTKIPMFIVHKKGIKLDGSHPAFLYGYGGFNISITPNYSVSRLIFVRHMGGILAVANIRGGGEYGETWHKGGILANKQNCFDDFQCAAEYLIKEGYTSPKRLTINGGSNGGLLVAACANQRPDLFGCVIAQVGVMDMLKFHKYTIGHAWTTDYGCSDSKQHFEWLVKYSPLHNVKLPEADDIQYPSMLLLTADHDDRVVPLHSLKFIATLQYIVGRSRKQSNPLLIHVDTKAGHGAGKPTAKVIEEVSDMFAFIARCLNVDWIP
Experimental: The activity of human recombinant prolyl endopeptidase (PREP) was determined photometrically using the substrate Z-Gly-Pro-pNA (Bachem, Weil am Rhein, Germany) usually at a concentration of 150 μM. As assay buffer 50 mM HEPES buffer pH 7.6, containing 200 mM NaCl, 1 mM EDTA, and 1 mM dithiothreitol was used. Release of pNA was monitored continuously at 405 nm for 15 min at 30°C in a 96-well plate reader (Spectrafluor, Tecan, Crailsheim, Germany). PREP activity was calculated from the slope of the time product curve with the help of a pNA standard. For determination of Ki values three different substrate concentrations (62.5 μM; 125 μM and 250 μM) and seven different inhibitor concentrations were analyzed. Substrate concentrations were selected to be at the Km value of Z-Gly-Pro-pNA (125 μM) as well as half and twice the Km. Data were fitted by non-linear regression to the competitive inhibitor equation (Graphit 5.0, Erithacus software).

[2] = test system: OSM-stimulated IL-6 secretion from U343 cells; test: OSM-induced IL-6 release from U343 glioma cells (IL-6 ELISA of conditioned medium); format: cell-based, human; details: for Remaining IL-6 expression [% of control]: 100 ng/ml OSM, 24 h, IL-6 release of vehicle-treated cells set to 100% (n = 2), mean ± SD; for Effect on OSM-induced IL-6 secretion (in words): OSM-stimulated
Experimental: The human glioma cell line U343 [34] was maintained in DMEM containing 10% fetal bovine serum and 60 μg/ml gentamycin (Invitrogen, Darmstadt, Germany) at 37°C in a 10% CO2 atmosphere.
(§1) Measurements of IL-6 in conditioned medium and murine plasma samples were done by means of human- or murine-specific IL-6 Cytoset kits (Invitrogen, Darmstadt, Germany) according to manufacturer's protocols.
Using the characterized cell culture model of OSM-induced IL-6 expression, our in-house compound libraries were screened for potent IL-6 expression inhibitors. Human U343 glioma cells were treated with 100 ng/ml OSM for 24 h. The analysis by IL-6 ELISA identified a set of structurally related compounds as potent inhibitors of IL-6 secretion (Table 1). […] HAKs with proline in position P1 are known from the literature as inhibitors of prolyl endopeptidase (PREP), a proline-specific serine protease.

[3] = test system: LPS-induced IL-6 release in primary rat astrocytes; test: LPS-induced IL-6 release in primary rat astrocytes (ELISA); format: cell-based; details: 1 μg/ml LPS, 20 μM compound, 24 h
Experimental: (§2) According to Löffler, astrocyte-rich primary cell cultures were started with brains of newborn mice and rats and were maintained in Dulbecco's modified Eagle's medium (DMEM) for 33 days at 37°C in a humified atmosphere with 95% air/5% CO2.
as §1
(§3) Figure 5 Suppression of LPS-induced IL-6 release in primary murine astrocytes by selected HAK compounds. […] Astrocytes derived from newborn mice and rats were cultivated for 33 days followed by stimulation with 1 μg/ml LPS and treatment with compounds HAK-2 and HAK-5 (20 μM). After 24 hours conditioned media were analyzed with IL-6 specific ELISA. Data (mean ± SD) were obtained from experiments carried out in quadruplicate and statistical analysis was performed using the paired t test. Amount of IL-6 in LPS-treated control sample was set to 100%. ns, not significant; **p < 0.01; ***p < 0.001.
(§4) Primary murine astrocytes stimulated with 1 μg/ml LPS were co-treated with compounds HAK-2 and HAK-5 at a concentration of 20 μM each for 24 h. The observed effect of compounds HAK-2 and HAK-5 on LPS stimulation was similar to that of OSM-induced IL-6 expression in human U343 glioma cells (Figures 5A and 5B). […]

[4] = test system: LPS-induced IL-6 release in primary mouse astrocytes; test: LPS-induced IL-6 release in primary mouse astrocytes (ELISA); format: cell-based; details: 1 μg/ml LPS, 20 μM compound, 24 h
Experimental: as §2, §1, §3, §4

[5] = test system: STAT3 phosphorylation at serine 727 (pSTAT3^S727) in U343 cells; test: OSM-induced STAT3 / Erk1 phosphorylation in U343 cells (western blot, immunocytochemistry); format: cell-based, human; details: OSM 100 ng/ml, 20 μM compound, 6 h
Experimental: Human U343 cells were lysed with cell lysis buffer (Invitrogen, Darmstadt, Germany) supplemented with 0.2 mg/ml sodium orthovanadate (Sigma, Taufkirchen, Germany), protease inhibitor mix complete mini (Roche, Mannheim, Germany) and 1 mM AEBSF (Sigma, Taufkirchen, Germany) for 30 min on ice. Lysates were centrifuged for 15 min at 15,000 × g and 4°C. Protein content in supernatants was quantified by Bradford assay (Sigma, Taufkirchen, Germany) according to the manufacturer's protocol and stored at -20°C.
Western blotting was performed with 30 μg protein of whole-cell extracts, mixed with 4 x SDS sample loading buffer (Invitrogen, Darmstadt, Germany) and denatured for 10 min at 85°C. […]
Human U343 cells (1 × 10^5 cells/well) were grown on cover slips in 24-well plates (Greiner, Frickenhausen, Germany) for 24 h. […] Finally, cover slips were mounted on microscope slides and approximately 250 cells/sample were evaluated densitometrically by fluorescence microscopy (Zeiss, Jena, Germany) and MetaMorph Image Analysis Software (Universal Imaging Corporation, USA). […]
Figure 7 Effect of selected HAK compounds on OSM-induced STAT3 phosphorylation at serine 727 in U343 cells. […] For western blot analysis (A) 0.25 × 10^6 cells co-treated for 6 h with OSM (100 ng/ml) and selected HAK compounds (20 μM) were extracted and analyzed as described in experimental procedures. […]

[6] = test system: OSM-induced IL-6 mRNA expression; design: method as in PMID 10899931; details: cited from earlier work

Row | SMILES | Ki [1] | Remaining IL-6 expression [% of control] [2] | Effect on OSM-induced IL-6 secretion (in words) [2] | PREP inhibition (in words) [1] | Reduction of LPS-induced IL-6 expression [3] | Reduction of LPS-induced IL-6 expression [4] | Effect on pSTAT3^S727 phosphorylation (western blot) [5] | Suppression of OSM-mediated phosphorylation of pSTAT3^S727 (immunocytochemistry, densitometry) [5] | Effect on first OSM-induced IL-6 mRNA peak [6] | Effect on second OSM-induced IL-6 expression peak [6]
1 | O=C(N[C@@H](Cc1ccccc1)C(=O)N1CCC[C@H]1C(=O)c1nc2ccccc2s1)OCc1ccccc1 [HAK-1, Z-Phe-Pro-BTh] | 4.6 nM | 15.9 ± 1.87 % of control | significantly reduced | – | – | – | – | – | – | –
2 | CC(C)C[C@H](NC(=O)[C@H](Cc1ccccc1)NC(=O)OCc1ccccc1)C(=O)c1nc2ccccc2s1 [HAK-3, Z-Phe-Leu-BTh] | > 1000 nM | 22.1 ±5.91 % of control | significantly reduced | poor PREP inhibitors | – | – | – | – | – | –
3 | C[C@H](NC(=O)[C@H](Cc1ccccc1)NC(=O)OCc1ccccc1)C(=O)c1nc2ccccc2s1 [HAK-4, Z-Phe-Ala-BTh] | > 10000 nM | 35.1 ± 6.75 % of control | significantly reduced | poor PREP inhibitors | – | – | – | – | – | –
4 | O=C(N[C@@H](Cc1ccccc1)C(=O)N1CCC[C@H]1C(=O)c1nccs1)OCc1ccccc1 [HAK-5, Z-Phe-Pro-Th] | 0.11 nM | 35.2 ± 12.92 % of control | significantly reduced | – | 50% | 60% | – | – | – | –
5 | NCCCC[C@H](NC(=O)OCc1ccccc1)C(=O)N1CCC[C@H]1C(=O)c1nc2ccccc2s1 [HAK-6, Z-Lys-Pro-BTh] | 4.1 nM | 38.8 ± 5.26 % of control | significantly reduced | – | – | – | – | – | – | –
6 | O=C(O)C[C@H](NC(=O)OCc1ccccc1)C(=O)N1CCC[C@H]1C(=O)c1nc2ccccc2s1 [HAK-7, Z-Asp-Pro-BTh] | 12 nM | 52.8 ± 3.91 % of control | significantly reduced | – | – | – | – | – | – | –
7 | N=C(N)NCCC[C@H](NC(=O)OCc1ccccc1)C(=O)N1CCC[C@H]1C(=O)c1nc2ccccc2s1 [HAK-8, Z-Arg-Pro-BTh] | 3.2 nM | 96.8 ± 10.69 % of control | does not reduce | potent PREP inhibitor | – | – | significantly lower effect | did not | – | –
8 | O=C(NC(Cc1ccccc1)C(=O)NC(Cc1ccccc1)C(=O)c1nc2ccccc2s1)OCc1ccccc1 (stereo not drawn) [HAK-9, Z-Phe-Phe-BTh] | > 10000 nM | 182.8 ± 25.41 % of control | – | – | – | – | – | – | – | –
9 | COc1ccc(C[C@H](N)C(=O)N[C@H]2[C@@H](O)[C@H](n3cnc4c(N(C)C)ncnc43)O[C@@H]2CO)cc1 [puromycin] | – | – | – | – | – | – | – | – | no effect | completely abrogated
